Measurements reported in a melting point compilation (Tetko et al.; mined from patent text by program, amines drawn as free bases though some values may be those of a salt).
Residues, ends and D or L forms follow the SMILES beside them. *: point of attachment. Cbz = O=C(OCc1ccccc1)*

Row | melting point | Compound
1 | 176 to 177 °C | COc1ccc(C2=NN(c3nc4ccccc4s3)C(=O)[C@H]3CC=CC[C@@H]23)cc1OC (relative stereo)
2 | 125 to 128 °C | Nc1nc2ccccc2c2c1ncn2CCOCCCc1cccnc1
3 | 106 to 107 °C | CCOC(=O)C(=CNC1CC1)C(=O)c1c(F)cc(Cl)c(F)c1Cl
4 | 195 to 197 °C | CCCOc1ccccc1-c1nc2c(C(=O)O)cccc2c(=O)[nH]1
5 | 91.9 to 93 °C | COc1cccc(CNc2ncnc3c2sc2nc(N(C)C)c4c(c23)CC(C)(C)CC4)c1OC
6 | 95 to 96 °C | O=c1ccoc(C(O)c2cccc(F)c2)c1OCc1ccccc1 (configuration not stated)
7 | 134 to 136 °C | CC(C)Cc1cc2nnc(-c3ccccc3F)n2nc1OCc1ncnn1C
8 | 120 to 121 °C | O=c1oc2cc(OCC3CO3)ccc2c2c1CCCC2 (configuration not stated)
9 | > 246 °C | Fc1ccc2[nH]c3c4ccccc4nc-3cc2c1
10 | 136 to 137 °C | Cc1cc(NCc2ccccc2)nc(-n2nc(C)cc2C)n1
11 | 199 °C | O=C1CCC2=C(CCc3cccc(F)c32)N1
12 | 150 to 155 °C | COc1cc(OCCN2CCCCC2)ccc1/C=C/c1cc(/C=C/c2ccc3cc[nH]c3c2)n[nH]1
13 | 90 to 91 °C | CC1CCCCN1CCC(CCN(C(C)C)C(C)C)(C(N)=O)c1ccccc1F (configuration not stated)
14 | 132 to 135 °C | Cc1ccc(OCn2c(-c3nonc3NCCC#N)nc3ccccc32)cc1C
15 | 116 to 119 °C | CC(C)(C)OC(=O)N[C@H](Cc1ccc(Cl)c(Cl)c1)C(=O)N1CCC[C@H]1C(=O)NC1CCc2n[nH]cc2C1 (some centres not stated)
16 | 182 °C | OC(COc1ccc(Cl)cc1Cl)(Cn1cnnc1)Cn1cncn1 (configuration not stated)
17 | 192 to 200 °C | CS(=O)(=O)Nc1ccc(S(=O)(=O)N2CCNc3nc4ccccc4n3CC2)cc1
18 | 232 to 237 °C | Nc1nc2ccccc2c2c1ncn2C1CC(O)C(CO)O1 (configuration not stated)
19 | 60 °C | Cc1ccc(S(=O)(=O)NCCN2C(=O)C3(CCCC3)c3ccccc32)cc1
20 | 136 °C | COc1ccc(-c2ccc(=O)n(Cc3ccc(Cl)cc3F)c2)cn1
21 | 102 to 105 °C | COc1ccccc1-c1cccn2nc(Nc3ccc4c(c3)CCN(CC(=O)N(C)C)CC4)nc12
22 | 184 to 185 °C | COc1cc(N(Cc2cccnc2)c2ccc(C(=O)O)cc2)ccc1OC(F)F
23 | 155 to 157 °C | COc1ccc(NC(=O)c2ccc(C#N)cc2)cc1
24 | 124 to 127 °C | COC(=O)C(C)(C)OCc1cc2nc(C(F)(F)F)ccc2n1S(=O)(=O)c1ccc2ncsc2c1
25 | 78 °C | CC(=O)NCCc1ccc(C(=O)c2cccc(F)c2)cc1
26 | 197 to 199 °C | Oc1ccc(-c2nc3cc(O)c(Cl)cc3o2)cc1F

Row | melting point | Compound
27 | 115 to 116 °C | COc1ccc2c(c1)CCC1C2CCC2(C)C(=O)C(C)CC12 (configuration not stated)
28 | 79.5 to 80.5 °C | COC(=O)COc1c(F)cc(SCCNS(=O)(=O)c2ccc(Cl)cc2)cc1F
29 | 219 to 220 °C | CCNC(=O)C(C)NC(=O)C(C)NC(=O)C1CCCN1C(=O)OCc1ccccc1 (stereo not drawn) (Cbz-Pro-Ala-Ala-NHEt; configuration not given here)
30 | > 300 °C | CC(C)=C1C(=O)Nc2cc3[nH]c(-c4ccncc4)nc3cc21
31 | 287 to 289 °C | CC(C)(C)C(=O)c1c[nH]c2ncc(N3Cc4ccccc4C3=O)nc12
32 | 188 to 189 °C | CC(C)(C)c1cc(C(=O)NCc2ccc(N)cc2)cc(C(C)(C)C)c1O
33 | 187 to 188 °C | COc1cc(CC(=O)Nc2cnn(Cc3c(C)noc3C)c2)cc(OC)c1O
34 | 188 to 189 °C | O=[N+]([O-])c1cn2c(n1)O[C@@H](COc1ccc(N3CCC(OCc4ccc(OC(F)(F)F)cc4)CC3)cc1)C2
35 | 147 to 148 °C | CS(=O)(=O)c1ccc(Oc2cc(OCc3cccc(Cl)n3)c3[nH]c(C4=NCC(CC(N)=O)S4)cc3c2)cc1 (configuration not stated)
36 | 138 to 139 °C | Cc1c(Oc2c(F)cc(C(F)(F)F)cc2Cl)nn(C(=O)OC(C)(C)C)c1C
37 | 222 to 224 °C | Cc1cc(C)c(NC(=O)Nc2c(-c3ccccc3Cl)c3ccncc3n(C)c2=O)c(C)c1
38 | 243 to 246 °C | COCCNC(=O)C1CCC(Nc2ncc3ncnc(Nc4ccc(F)c(Cl)c4)c3n2)CC1 (configuration not stated)
39 | 95 to 97 °C | COc1ccc(Cc2cnc(NCCSCc3nccs3)[nH]c2=O)cn1
40 | 239 °C | O=Cc1ccnc2c(NC(=O)c3c(Cl)cccc3Cl)cccc12
41 | 154 to 155 °C | COc1ccc(C(=O)Nc2cc(N)ccc2Br)cc1OC
42 | 135 °C | CCOC(=O)c1ccc(NCc2cc(Br)ccc2OCc2ccccc2)c(N)c1
43 | 111 to 115 °C | O=C1C[C@@H](O)C[C@H](CCc2c(Cl)cc(Cl)c3ccc(Cl)cc23)O1 (relative stereo)
44 | 89 to 92 °C | CC(C)CCn1c(=O)c2c(Cl)cc(Cl)cc2n(Cc2ccccc2)c1=O
45 | 195 to 197 °C | NC(=O)Nc1nc(CC(=O)Nc2cccc(C(F)(F)F)c2)cs1
46 | 232 to 233 °C | N#Cc1ccc2c(c1)CCc1nn(-c3ccccn3)c(O)c1-2
47 | 126 to 127 °C | CC(C)(C)OC(=O)NCCNC(=O)c1cc(Cl)cc(Cl)n1
48 | 48 to 53 °C | O=Cc1cccc(OCc2ccc3ccccc3n2)c1
49 | 130 to 136 °C | COc1ccc(CCNC(=O)c2ccc3n2Cc2ccccc2N(C(=O)c2ccc(-c4ccccc4C)c(C)c2)C3)cc1OC
50 | 113 to 140 °C | COc1ccc(C(=O)c2ccc(Cl)c(Cl)c2)c(Cl)c1Cl
51 | 160 °C | CC(CNS(C)(=O)=O)Nc1nc(Cl)ncc1Cl (configuration not stated)

Second part, the molecule before the results:

Row | Compound | melting point
52 | CN1CCN(C2=Nc3cc(Br)ccc3Nc3nn(C)nc32)CC1 | 183 to 184 °C
53 | CC1(C)C=C(c2ccc(C(=O)N3Cc4cccn4Cc4ccccc43)cc2)CC(C)(C)C1 | 142 to 143 °C
54 | Cc1oc(-c2ccc3ccccc3c2)nc1COc1ccc(CO)cc1 | 181 to 182 °C
55 | CSCCN1C(=O)N2CCOC2(c2ccccc2)c2cc(Cl)ccc21 (configuration not stated) | 145 to 146 °C
56 | CC(=O)C1CCC2C3CCC4CC(=O)C(C)CC4(C)C3C(=O)CC12C (configuration not stated) | 176 °C
57 | O=C(Nc1ccccc1C(=O)O)C(=Cc1ccccc1)C(=O)Nc1ccccc1C(=O)O | 247 to 249 °C
58 | CCOC(=O)/C(=N\O[C@H]1CCC[C@@H](C)C1)c1csc(N)n1 (relative stereo) | 91 to 93 °C
59 | COC12CC(C(C)COC(=O)c3[nH]c(C)cc3C)CN(C)C1Cc1cn(C)c3cccc2c13 (configuration not stated) | 128 to 130 °C
60 | O=C1Nc2nnccc2C(=O)C1c1c(F)cc(F)cc1F (configuration not stated) | > 330 °C
61 | ClCCN(CCCl)CCCCOc1cccc(Nc2c3ccccc3nc3c(OCCN(CCCl)CCCl)cccc23)c1 | 95 to 96 °C
62 | O=C(O)Cc1cccc(C(=O)c2ccc(OCc3ccc4ccccc4c3)cc2)c1 | 150 to 152 °C
63 | CCC(Cc1ccc(S(=O)(=O)c2ccc(S(N)(=O)=O)s2)cc1)N(C)C (configuration not stated) | 169 to 172 °C
64 | Ic1ccc2c(c1)C(c1ccccc1)=NCc1nnc(Cc3ccccc3)n1-2 | 200 to 201 °C
65 | CCCC(C(C)=CC(CNC(=O)Cc1cccnc1)=NO)[N+](=O)[O-] (configuration not stated) | 128 to 129 °C
66 | COc1ccc(CCl)c(C)c1OC | 67 to 68.5 °C
67 | CC1(C)COC(c2cc(I)cc(C(F)(F)F)c2)=N1 | 73 to 74.5 °C
68 | O=C1c2ccccc2-n2c1nc1ccc(Br)cc1c2=O | 315 to 316 °C
69 | C=COCCOc1ccc(C2(c3ccc(OCCOC=C)cc3)CCC(c3ccc(OCCOC=C)cc3)(c3ccc(OCCOC=C)cc3)CC2)cc1 | 138 to 139 °C
70 | c1ccc(COc2ccc(CN(c3ccccc3)c3ccccc3)cc2)cc1 | 104 to 109 °C
71 | c1cc(N=C2SCC3Cc4sccc4CN23)c2ccncc2c1 (racemic) | 198 °C
72 | O=C(O)c1cc(Br)ccc1Sc1ccccc1 | 171 to 173 °C
73 | CC(C)Sc1ccc2c(c1)NC(=O)C2 | 99 to 102 °C
74 | O=C(NC(=O)c1cccc(C(F)(F)F)c1)NC1CN2CCC1CC2 (configuration not stated) | 197 to 200 °C

Row | Compound | melting point
75 | CCc1cc(Cc2cc(CC)c(N)c(C)c2Cl)c(Cl)c(C)c1N | 115 to 117 °C
76 | Nc1ncnc2c1ncn2Cc1nc2cccc(Cl)c2c(=O)n1-c1ccccc1F | 296 °C
77 | CN1C(=O)CSC(c2cccc(Cl)c2)c2cc(C(O)(c3ccc(Cl)cc3)c3cncn3C)ccc21 (configuration not stated) | 186 °C
78 | CC1(c2ccc(F)cc2)NOCC1CN(O)C(N)=O (configuration not stated) | 135 to 137 °C
79 | CC(=O)c1ccc(C2=C(c3ccc(S(C)(=O)=O)cc3)OC3(CCCC3)C2=O)cc1 | 126 to 130 °C
80 | Nc1cc(O)ccc1Oc1ccccc1 | 156 to 157 °C
81 | NC(=O)[C@H](O)[C@@H](O)CO | 105 to 107 °C
82 | BrCCc1nc(-c2ccccc2)c(-c2ccccc2)o1 | 72 to 74 °C
83 | O=C1CCc2c(-c3ccncc3)sc(-c3ccc(C(F)(F)F)cc3)c21 | 158 to 160 °C
84 | NS(=O)(=O)c1cc2c(cc1Cl)NCN(CCO)S2(=O)=O | 199 to 203 °C
85 | O=C(O)C=CC=CCCCCCc1cccc2cncn12 | 120 to 122 °C
86 | CC(=O)Oc1ccc(S(=O)(=O)ON=C(C#N)c2cccs2)cc1 | 114 to 115 °C
87 | Cn1c([N+](=O)[O-])cnc1CS(=O)(=O)c1ccccn1 | 187 °C
88 | CCOC(=O)C1=C(C)NN=C(c2ccccc2)C1c1ccccc1 (configuration not stated) | 130 °C
89 | CC1(C)Oc2cc(C#N)sc2[C@@H](N2CCCCC2=O)[C@@H]1O (relative stereo) | 212 to 214 °C
90 | CCOC(=O)CN1CC[C@@H](O)C1=O | 84 to 85 °C
91 | CSc1ccc(N2CCCN(/C(C)=C(/C#N)C(=S)/N=C/N(C)C)CC2)cc1 | 133 to 136 °C
92 | Cc1cc2c(c3ccc(=O)[nH]c13)OC(CCCl)C2 (configuration not stated) | 209 to 211 °C
93 | CSCCOc1ccc(/C=C(\C)c2ccc3c(c2)C(C)(C)CCC3(C)C)cc1 | 94 to 96 °C
94 | N#CC(c1ccc(Cl)c(Cl)c1)c1c(Cl)cc(N)cc1Cl (configuration not stated) | 191 to 194 °C
95 | c1ccc(-c2cn3c(n2)Cc2ccccc2C3)cc1 | 195 to 197 °C
96 | COC(=O)Cc1ccc2c(c1)CCN2C(C)=O | 104 to 105 °C
97 | NC(=O)c1ccc2[nH]cc(CCN3C(=O)c4ccccc4C3=O)c2c1 | 254 to 256 °C
